Here are results for one compound from patent publication US8609669B2, “Potassium channel modulators” (AbbVie Inc., priority 2010, dated 2013).

The subject of experiment [1] is Capsaicin-induced secondary mechanical hyperalgesia / tactile allodynia. Briefly: Capsaicin-induced secondary mechanical hypersensitivity. The experiment is classed as in vivo, Sprague-Dawley rats. As to conditions: rat, about 30 mg/kg i.p., 30 minutes before testing, von Frey. The source says:
(§1) Adult male Sprague-Dawley rats (250-300 g body weight, Charles River Laboratories, Portage, Mich.) were used. Animal handling and experimental protocols were approved by the Institutional Animal Care and Use Committee (IACUC) at Abbott Laboratories. For all surgical procedures, animals were maintained under isoflurane anesthesia (4-5% to induce, 1-3% to maintain), and the incision sites were sterilized using a 10% povidone-iodine solution prior to and after surgeries.
Rats were allowed to acclimate to the study room for 1 hour. They were then briefly restrained, and capsaicin was administered at 10 μg in 10 μL of vehicle (10% ethanol and 2-hydroxypropyl cyclodextrin) by intraplantar injection into the center of the right hind paw. Secondary mechanical hyperalgesia was measured at the heel away from the site of injection at 180 minutes following capsaicin (Joshi et al., 2006, Neuroscience 143, 587-596). Compounds were injected (i.p.) 30 minutes before testing (150 minutes post-capsaicin).
Tactile (mechanical) allodynia was measured using calibrated von Frey filaments (Stoelting, Wood Dale, Ill.) as described in Chaplan, S. R., F. W. Bach, J. M. Pogrel, J. M. Chung and T. L. Yaksh, 1994, Quantitative assessment of tactile allodynia in the rat paw, J. Neurosci. Methods, 53, 55. […]
Tactile allodynia was measured as described above.

For experiment [2], the system named is CCI-induced mechanical allodynia. The experiment is described as follows: Chronic constriction injury (CCI) model of neuropathic pain (Bennett model). The format is in vivo, Sprague-Dawley rats. As to conditions: rat CCI, about 30 mg/kg i.p., 30 minutes or more before testing.
Description: as §1
Tactile (mechanical) allodynia was measured using calibrated von Frey filaments (Stoelting, Wood Dale, Ill.) as described in Chaplan, S. R., F. W. Bach, J. M. Pogrel, J. M. Chung and T. L. Yaksh, 1994, Quantitative assessment of tactile allodynia in the rat paw, J. Neurosci. Methods, 53, 55. Rats were placed into inverted individual plastic containers (20×12.5×20 cm) on top of a suspended wire mesh grid, and acclimated to the test chambers for 20 minutes. The von Frey filaments were presented perpendicularly to the plantar surface of the selected hind paw, and then held in this position for approximately 8 seconds with enough force to cause a slight bend in the filament. Positive responses include an abrupt withdrawal of the hind paw from the stimulus, or flinching behavior immediately following removal of the stimulus.
A model of chronic constriction injury-induced (CCI) neuropathic pain was produced by following the method of Bennett and Xie (1988, Pain, 33, 87-107). The right common sciatic nerve was isolated at mid-thigh level, and loosely ligated by 4 chromic gut (5-0) ties separated by an interval of 1 mm. Sham rats can underwent the same procedure, but without sciatic nerve constriction. All animals can be left to recover for at least 2 weeks and no more than 5 weeks prior to testing of mechanical allodynia. Compounds were injected (i.p.) 30 minutes or more before testing.

SMILES strings stand for the structures.

On to `CC(C)(C)CC(=O)Nc1nn2cccnc2c1-c1ccc(OC(F)(F)F)cc1` [Example 1, 3,3-dimethyl-N-(3-(4-(trifluoromethoxy)phenyl)pyrazolo[1,5-a]pyrimidin-2-yl)butanamide], for which the “change in paw withdrawal latency versus vehicle” value in experiment [1] and in experiment [2] was “statistically significant change” in each case.
